≈ marks a conversion by molar mass, not a printed value. Where “and” joins values, the source holds several entries; their conditions need not be identical. Equal entries are not always repeated. Each block holds one compound with its values, some of them ahead of it.
How the values were obtained:
Assay in all cases: ≥ marks a high value that may be exact or a test limit, other limits are often not marked, values filed in µg/mL are converted to µM
[1] = system: Candida albicans CIB 45437
[2] = system: Staphylococcus aureus CIB 85462
[3] = system: Escherichia coli ATCC 25922
[4] = system: Staphylococcus aureus ATCC 25923
[5] = system: Escherichia coli ATCC 25726
[6] = system: Escherichia coli CIB 84492
[7] = system: Staphylococcus aureus ATCC 2576
Staphylococcus aureus = system: Staphylococcus aureus
[8] = system: Shigella dysenteriae ATCC 2932
Escherichia coli = system: Escherichia coli
[9] = system: Candida albicans ATCC 3007
Shigella dysenteriae = system: Shigella dysenteriae
[10] = system: Escherichia coli ATCC 25629
[11] = system: Pseudomonas aeruginosa ATCC 27853
Enterococcus faecium = system: Enterococcus faecium
[12] = system: Staphylococcus aureus LT1334
Micrococcus luteus = system: Micrococcus luteus
Citrobacter freundii = system: Citrobacter freundii
Bacillus megaterium Bm11 = system: Bacillus megaterium Bm11
[13] = system: Staphylococcus aureus 710A
[14] = system: Staphylococcus epidermidis LT1324
Klebsiella pneumoniae = system: Klebsiella pneumoniae
[15] = system: Staphylococcus aureus LT1338
[16] = system: Salmonella enterica subsp. enterica serovar Typhimurium ATCC 14028
Pseudomonas aeruginosa = system: Pseudomonas aeruginosa
[17] = system: Stenotrophomonas maltophilia
[18] = system: Staphylococcus haemolyticus
Staphylococcus simulans = system: Staphylococcus simulans
Escherichia coli ML-35 = system: Escherichia coli ML-35
Candida albicans = system: Candida albicans
[19] = system: Staphylococcus aureus NCTC 8325
[20] = system: Klebsiella pneumoniae ATCC 700603
[21] = system: Acinetobacter baumannii I NM8
[22] = system: Candida albicans ATCC 90028
[23] = system: Bacillus subtilis KCTC 3068
Streptococcus agalactiae = system: Streptococcus agalactiae
[24] = system: Staphylococcus epidermidis ATCC 12228
[25] = system: Salmonella typhimurium KCTC 1926
Serratia marcescens = system: Serratia marcescens
[26] = system: Serratia marcescens ATCC 8100
Cryptococcus neoformans = system: Cryptococcus neoformans
[27] = system: Pseudomonas aeruginosa KCTC 1637
[28] = system: Escherichia coli KCTC 1682
[29] = system: Staphylococcus aureus KCTC 1621
[30] = system: Escherichia coli O18:K1:H7 Bort
[31] = system: Staphylococcus aureus Cowan 1
[32] = system: Staphylococcus epidermidis KCTC 1917
Escherichia coli D21 = system: Escherichia coli D21

SMILES: CSCC[C@H](NC(=O)[C@H](CCCCN)NC(=O)[C@@H]1CCCN1C(=O)[C@H](CC(C)C)NC(=O)[C@@H](N)Cc1ccccc1)C(=O)N[C@@H](CO)C(=O)N[C@H](C(=O)N[C@@H](CCCCN)C(=O)N[C@@H](CC(C)C)C(=O)N[C@@H](CCCN=C(N)N)C(=O)N[C@H](C(=O)N1CCC[C@H]1C(=O)N[C@@H](Cc1ccc(O)cc1)C(=O)N[C@@H](CCCN=C(N)N)C(=O)N[C@@H](CCCN=C(N)N)C(=O)NCC(=O)N[C@H](C(=O)N[C@@H](CCCCN)C(=O)N[C@@H](CC(=O)O)C(=O)N[C@@H](Cc1ccc(O)cc1)C(=O)N[C@@H](Cc1cnc[nH]1)C(=O)O)[C@@H](C)O)C(C)C)[C@@H](C)O [FLPKMSTKLRVPYRRGTKDYH]
MIC [7]: 0.463 µM (≈ 1.2 µg/mL) | MIC (Staphylococcus aureus): 1.93 µM (≈ 5 µg/mL) | MIC [8]: 2.89 µM (≈ 7.5 µg/mL) | MIC (Escherichia coli): 5.78 µM (≈ 15 µg/mL) | MIC [9]: 5.78 µM (≈ 15 µg/mL) | MIC (Shigella dysenteriae): 2.89 µM (≈ 7.5 µg/mL) | MIC [10]: 4.82 µM (≈ 12.5 µg/mL)

SMILES: CC[C@H](C)[C@H](NC(=O)[C@H](CCCN=C(N)N)NC(=O)[C@H](C)NC(=O)[C@H](CC(C)C)NC(=O)[C@H](CCCN=C(N)N)NC(=O)CNC(=O)[C@H](Cc1ccccc1)NC(=O)[C@@H](NC(=O)[C@H](CO)NC(=O)CNC(=O)[C@H](CC(C)C)NC(=O)CN)C(C)C)C(=O)N[C@@H](CC(C)C)C(=O)NCC(=O)N[C@@H](CCCN=C(N)N)C(=O)N[C@H](C(=O)N[C@H](C(=O)N1CCC[C@H]1C(=O)N[C@@H](CCCCN)C(=O)N[C@H](C(N)=O)C(C)C)[C@@H](C)CC)C(C)C [GLGSVFGRLARILGRVIPKV]
MIC [11]: 8 µM (≈ 16.9 µg/mL) | MIC (Enterococcus faecium): 2 µM (≈ 4.22 µg/mL) | MIC [12]: 1.5 µM (≈ 3.16 µg/mL) | MIC (Micrococcus luteus): 0.5 µM (≈ 1.05 µg/mL) | MIC (Citrobacter freundii): 2 µM (≈ 4.22 µg/mL) | MIC (Staphylococcus aureus): 2 µM (≈ 4.22 µg/mL) | MIC (Bacillus megaterium Bm11): 2 µM (≈ 4.22 µg/mL) | MIC [13]: 4 µM (≈ 8.43 µg/mL) | MIC [14]: 2 µM (≈ 4.22 µg/mL) | MIC (Klebsiella pneumoniae): 2 µM (≈ 4.22 µg/mL) | MIC [15]: 3 µM (≈ 6.32 µg/mL) | MIC [16]: 8 µM (≈ 16.9 µg/mL) | MIC (Pseudomonas aeruginosa): 4 µM (≈ 8.43 µg/mL) | MIC (Escherichia coli): 2.83 µM (≈ 5.96 µg/mL) | MIC [17]: 2 µM (≈ 4.22 µg/mL) | MIC [18]: 2 µM (≈ 4.22 µg/mL) | MIC (Staphylococcus simulans): 2 µM (≈ 4.22 µg/mL) | MIC (Escherichia coli ML-35): 2 µM (≈ 4.22 µg/mL) | MIC (Candida albicans): > 4 µM

Now from value to compound:

MIC [1]: ≥ 50 µM | MIC [2]: 12.5 µM (≈ 32 µg/mL) | MIC [3]: 50 µM (≈ 128 µg/mL) | MIC [4]: 3.12 µM (≈ 7.99 µg/mL) | MIC [5]: ≥ 48.8 µM | MIC [6]: 25 µM (≈ 64 µg/mL)
SMILES: CC[C@H](C)[C@@H]1NC(=O)[C@H](C)NC(=O)[C@@H](NC(=O)[C@H](Cc2ccccc2)NC(=O)[C@@H](NC(=O)[C@@H](NC(=O)[C@@H]2CCCN2C(=O)[C@@H](NC(=O)[C@@H](NC(=O)[C@H](CCC(N)=O)NC(=O)[C@H](C)NC(=O)[C@H](C)NC(=O)[C@@H](NC(=O)[C@H](CCCN=C(N)N)NC(=O)[C@H](CC(C)C)NC(=O)[C@@H](NC(=O)[C@H](C)NC(=O)[C@@H]2CCCN2C(=O)[C@H](CC(C)C)NC(=O)[C@@H](N)Cc2ccccc2)C(C)C)C(C)C)C(C)C)C(C)C)[C@@H](C)O)C(C)C)CSSC[C@@H](C(=O)O)NC(=O)[C@H](CCCCN)NC(=O)[C@H](CCCCN)NC(=O)[C@H](CO)NC1=O [FLPAVLRVAAQVVPTVFCAISKKC]

MIC [19]: ≥ 100 µM | MIC [20]: > 50 µM | MIC [21]: 25 µM (≈ 50 µg/mL) | MIC [3]: > 100 µM | MIC [22]: ≥ 100 µM | MIC [4]: 160 µM and 100 µM | MIC [5]: ≥ 100 µM
SMILES: CC[C@H](C)[C@H](NC(=O)[C@@H](NC(=O)[C@H](C)NC(=O)[C@H](CCCCN)NC(=O)[C@H](C)NC(=O)[C@@H](NC(=O)[C@H](CCCCN)NC(=O)CNC(=O)[C@H](CC(C)C)NC(=O)[C@H](C)NC(=O)[C@@H](NC(=O)CNC(=O)[C@H](C)NC(=O)[C@H](CCCCN)NC(=O)[C@@H](NC(=O)[C@H](C)NC(=O)[C@H](CCSC)NC(=O)CN)[C@@H](C)O)[C@@H](C)O)C(C)C)C(C)C)C(=O)NCC(=O)N[C@@H](C)C(=O)N[C@@H](C)C(=O)N[C@@H](CC(C)C)C(N)=O [GMATKAGTALGKVAKAVIGAAL]

MIC [23]: 2 µM (≈ 6.56 µg/mL) | MIC (Streptococcus agalactiae): 2.83 µM (≈ 9.28 µg/mL) | MIC [11]: 1 µM (≈ 3.28 µg/mL) | MIC [24]: 1 µM (≈ 3.28 µg/mL) | MIC (Enterococcus faecium): 5.66 µM (≈ 18.6 µg/mL) | MIC [25]: 1 µM (≈ 3.28 µg/mL) | MIC (Serratia marcescens): 2.83 µM (≈ 9.28 µg/mL) | MIC [26]: 2 µM (≈ 6.56 µg/mL) | MIC (Cryptococcus neoformans): 4 µM (≈ 13.1 µg/mL) | MIC (Staphylococcus aureus): 4 µM (≈ 13.1 µg/mL) | MIC (Bacillus megaterium Bm11): 2 µM (≈ 6.56 µg/mL) | MIC [27]: 2 µM (≈ 6.56 µg/mL) | MIC [28]: 4 µM (≈ 13.1 µg/mL) | MIC [3]: 1 µM (≈ 3.28 µg/mL) | MIC [16]: 1 µM (≈ 3.28 µg/mL) | MIC [29]: 4 µM (≈ 13.1 µg/mL) | MIC [4]: 2 µM (≈ 6.56 µg/mL) | MIC [30]: 0.5 µM (≈ 1.64 µg/mL) | MIC (Escherichia coli ML-35): 1 µM (≈ 3.28 µg/mL) | MIC [31]: 2 µM (≈ 6.56 µg/mL) | MIC [32]: 2 µM (≈ 6.56 µg/mL) | MIC (Escherichia coli D21): 0.25 µM (≈ 0.821 µg/mL) | MIC (Candida albicans): 8 µM (≈ 26.3 µg/mL)
SMILES: CC[C@H](C)[C@H](NC(=O)[C@@H](NC(=O)[C@@H]1CCCN1C(=O)[C@H](CO)NC(=O)[C@H](CC(C)C)NC(=O)[C@H](CCCCN)NC(=O)[C@H](CCCCN)NC(=O)[C@H](Cc1ccccc1)NC(=O)[C@H](CC(C)C)NC(=O)[C@H](CCCCN)NC(=O)[C@H](CCCCN)NC(=O)[C@H](Cc1ccccc1)NC(=O)[C@H](CCCCN)NC(=O)[C@H](CCCCN)NC(=O)[C@H](CCCN=C(N)N)NC(=O)[C@H](Cc1ccccc1)NC(=O)[C@H](CCCN=C(N)N)NC(=O)[C@H](CCCCN)NC(=O)[C@H](Cc1ccccc1)NC(=O)[C@H](CCCN=C(N)N)NC(=O)CN)C(C)C)C(=O)N1CCC[C@H]1C(=O)N[C@@H](CC(C)C)C(=O)N[C@@H](CC(C)C)C(=O)N[C@@H](Cc1cnc[nH]1)C(=O)N[C@@H](CC(C)C)C(=O)NCC(N)=O [GRFKRFRKKFKKLFKKLSPVIPLLHLG]
